# Assay results reported in patent US8546429B2, “1,2,3-trisubstituted aryl and heteroaryl derivatives as modulators of metabolism and the prophylaxis and treatment of disorders related thereto” (Arena Pharmaceuticals, Inc., priority 2003, dated 2013).
# Target: T1, RUP3 (Homo sapiens, UniProt Q8TDV5)
# T1 construct: expressed in transfected cells; host or cells: melanophores, electroporated
# T1 sequence (Q8TDV5 1-335): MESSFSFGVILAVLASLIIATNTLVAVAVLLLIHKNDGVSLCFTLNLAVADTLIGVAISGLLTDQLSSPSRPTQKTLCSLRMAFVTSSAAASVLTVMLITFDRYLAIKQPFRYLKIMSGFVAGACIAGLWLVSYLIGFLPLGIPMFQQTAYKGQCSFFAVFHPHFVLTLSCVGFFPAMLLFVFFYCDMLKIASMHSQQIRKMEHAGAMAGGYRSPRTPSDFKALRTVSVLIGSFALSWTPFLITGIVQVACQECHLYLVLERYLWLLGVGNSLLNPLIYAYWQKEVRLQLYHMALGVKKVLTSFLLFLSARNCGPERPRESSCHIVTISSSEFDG
# Test: RUP3 dose responses in melanophores
# Assay type: cell-based
# Conditions: melanophores transfected with RUP3 expression vector; Table 8
# Protocol: Melanophores are maintained in culture as reported by Potenza, M. N. and Lerner, M. R., in Pigment Cell Research, Vol. 5, 372-378, 1992 and transfected with the RUP3 expression vector (pCMV) using electroporation. Following electroporation, the transfected cells are plated into 96 well plates for the assay. The cells are then allowed to grow for 48 hours in order to both recover from the electroporation procedure and attain maximal receptor expression levels.
# On the assay day, the growth medium on the cells is replaced with serum-free buffer containing 10 nM melatonin. The melatonin acts via an endogenous Gi-coupled GPCR in the melanophores to lower intracellular cAMP levels. In response to lowered cAMP levels, the melanophores translocate their pigment to the center of the cell. The net effect of this is a significant decrease in the absorbance reading of the cell monolayer in the well, measured at […].
# After a 1-hour incubation in melatonin, the cells become completely pigment-aggregated. At this point a baseline absorbance reading is collected. Serial dilutions of test compounds are then added to the plate and compounds that stimulate RUP3 produce increases in intracellular cAMP levels. In response to these increased cAMP levels, the melanophores translocate their pigment back into the cell periphery. After one hour, stimulated cells are fully pigment-dispersed. The cell monolayer in the dispersed state absorbs much more light in the 600-650 nm range. The measured increase in absorbance compared to the baseline reading allows one to quantitate the degree of receptor stimulation and plot a dose-response curve.
# The compounds in the above examples were screened using the melanophore assay.
row,SMILES,EC50 [nM]
1,"CC(C)(C)C(=O)CN1CCC(Oc2ncnc(Nc3ccc(S(C)(=O)=O)cc3)c2[N+](=O)[O-])CC1 [Compound A11, 1-{4-[6-(4-Methanesulfonyl-phenylamino)-5-nitro-pyrimidin-4-yloxy]-piperidin-1-yl}-3,3-dimethyl-butan-2-one]",86
2,"CC(C)(C)OC(=O)N1CCC(CCOc2ncnc(Nc3ccc(S(C)(=O)=O)cc3)c2[N+](=O)[O-])CC1 [Compound A14, 4-{2-[6-(4-Methanesulfonyl-phenylamino)-5-nitro-pyrimidin-4-yloxy]-ethyl}-piperidine-1-carboxylic acid tert-butyl ester]",242
3,"CS(=O)(=O)c1ccc(Nc2ncnc(OC3CCN(C(=O)c4cccnc4)CC3)c2[N+](=O)[O-])cc1 [Compound A24, {4-[6-(4-Methanesulfonyl-phenylamino)-5-nitro-pyrimidin-4-yloxy]-piperidin-1-yl}-pyridin-3-yl-methanone]",185
4,"CS(=O)(=O)c1ccc(Nc2ncnc(OC3CCN(S(C)(=O)=O)CC3)c2[N+](=O)[O-])cc1 [Compound A27, (4-Methanesulfonyl-phenyl)-[6-(1-methanesulfonyl-piperidin-4-yloxy)-5-nitro-pyrimidin-4-yl]-amine]",76.5
5,"Cc1nc(C)c(S(=O)(=O)N2CCC(Oc3ncnc(Nc4ccc(S(C)(=O)=O)cc4)c3[N+](=O)[O-])CC2)s1 [Compound A32, {6-[1-(2,4-Dimethyl-thiazole-5-sulfonyl)-piperidin-4-yloxy]-5-nitro-pyrimidin-4-yl}-(4-methanesulfonyl-phenyl)-amine]",43.5
6,"CC(C)OC(=O)N1CCC(Oc2ncnc(Nc3ccc(S(C)(=O)=O)cc3)c2C#N)CC1 [Compound A39, 4-[5-Cyano-6-(4-methanesulfonyl-phenylamino)-pyrimidin-4-yloxy]-piperidine-1-carboxylic acid isopropyl ester]",16.9
7,"Cc1nc(Cl)ccc1Nc1ncnc(OC2CCN(C(=O)OC(C)C)CC2)c1C [Compound A90, 4-[6-(6-Chloro-2-methyl-pyridin-3-ylamino)-5-methyl-pyrimidin-4-yloxy]-piperidine-1-carboxylic acid isopropyl ester]",52
8,"CC(C)(C)C(=O)N1CCC(Nc2ncnc(Nc3ccc(S(C)(=O)=O)cc3)c2[N+](=O)[O-])CC1 [Compound B4, 1-{4-[6-(4-Methanesulfonyl-phenylamino)-5-nitro-pyrimidin-4-ylamino]-piperidin-1-yl}-2,2-dimethyl-propan-1-one]",300
9,"Cc1c(Oc2ccc(CCn3ccnc3)cc2F)ncnc1OC1CCN(C(=O)OC(C)C)CC1 [Compound C168, 4-{6-[2-Fluoro-4-(2-imidazol-1-yl-ethyl)-phenoxy]-5-methyl-pyrimidin-4-yloxy}-piperidine-1-carboxylic acid isopropyl ester]",28.3

# System: Male Sprague Dawley rats
# Test: Oral glucose tolerance test (oGTT) in rats
# Assay type: in vivo, rat
# Conditions: mean of six rats, 10 mg/kg p.o., dextrose 2 g/kg oral challenge
# Protocol: Male Sprague Dawley rats weighing approximately 200 g-250 g were fasted for 15 hours and randomly grouped (n=6) to receive a RUP3 agonist (Compounds A78, A88 or A118) at 3, 10 or 30 mg/kg. Compounds were delivered orally via a gavage needle (p.o., volume 3 ml/kg). At time 0, levels of blood glucose were assessed using a glucometer (Elite XL, Bayer), and rats were administered either vehicle (20% hydroxypropyl-beta-cyclodextrin) or test compound. Thirty minutes after administration of test compound, levels of blood glucose were again assessed, and rats were administered dextrose orally at a dose of 2 g/kg. Blood glucose measurements were then taken 30 min, 60 min, and 120 min after this time.
row,SMILES,% inhibition of glucose excursion
1,"CC(C)OC(=O)N1CCC(Oc2ncnc(Nc3ccc(S(C)(=O)=O)cc3F)c2C#N)CC1 [Compound A78, 4-[5-Cyano-6-(2-fluoro-4-methanesulfonyl-phenylamino)-pyrimidin-4-yloxy]-piperidine-1-carboxylic acid isopropyl ester]","39%, (10)"

# Same assay, conditions: mean of six rats, 30 mg/kg p.o., dextrose 2 g/kg oral challenge
row,SMILES,% inhibition of glucose excursion
1,"Cc1c(Nc2cc(F)c(C#N)cc2F)ncnc1OC1CCN(C(=O)OC(C)C)CC1 [Compound A88, 4-[6-(4-Cyano-2,5-difluoro-phenylamino)-5-methyl-pyrimidin-4-yloxy]-piperidine-1-carboxylic acid isopropyl ester]","38%, (30)"
2,"Cc1c(OC2CCN(C(=O)OC(C)C)CC2)ccnc1Nc1ccc(S(C)(=O)=O)cc1F [Compound A118, 4-[2-(2-Fluoro-4-methanesulfonyl-phenylamino)-3-methyl-pyridin-4-yloxy]-piperidine-1-carboxylic acid isopropyl ester]","43%, (30)"

# Same assay, conditions: rats, p.o., oGTT
row,SMILES,effect on blood glucose after challenge with glucose
1,"CC(C)OC(=O)N1CCC(Oc2ncnc(Nc3ccc(S(C)(=O)=O)cc3F)c2C#N)CC1 [Compound A78, 4-[5-Cyano-6-(2-fluoro-4-methanesulfonyl-phenylamino)-pyrimidin-4-yloxy]-piperidine-1-carboxylic acid isopropyl ester]",lowered blood glucose
2,"Cc1c(Nc2cc(F)c(C#N)cc2F)ncnc1OC1CCN(C(=O)OC(C)C)CC1 [Compound A88, 4-[6-(4-Cyano-2,5-difluoro-phenylamino)-5-methyl-pyrimidin-4-yloxy]-piperidine-1-carboxylic acid isopropyl ester]",lowered blood glucose
3,"Cc1c(OC2CCN(C(=O)OC(C)C)CC2)ccnc1Nc1ccc(S(C)(=O)=O)cc1F [Compound A118, 4-[2-(2-Fluoro-4-methanesulfonyl-phenylamino)-3-methyl-pyridin-4-yloxy]-piperidine-1-carboxylic acid isopropyl ester]",lowered blood glucose

# Target: T2, RUP3 (Mesocricetus auratus, UniProt A0A1U8CD06)
# T2 construct: host or cells: HIT-T15 hamster insulin-producing cells
# T2 sequence (A0A1U8CD06 1-334): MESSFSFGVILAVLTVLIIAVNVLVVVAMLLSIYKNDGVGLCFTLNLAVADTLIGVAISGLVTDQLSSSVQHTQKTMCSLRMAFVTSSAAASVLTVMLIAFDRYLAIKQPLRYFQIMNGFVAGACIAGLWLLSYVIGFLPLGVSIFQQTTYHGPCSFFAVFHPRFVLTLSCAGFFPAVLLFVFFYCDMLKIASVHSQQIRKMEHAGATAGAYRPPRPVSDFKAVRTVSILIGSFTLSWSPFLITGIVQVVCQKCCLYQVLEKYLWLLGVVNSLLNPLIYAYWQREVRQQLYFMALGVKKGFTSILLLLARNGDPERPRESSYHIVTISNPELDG
# Test: Stimulation of cAMP in HIT-T15 cells (cAMP Flashplate Assay)
# Assay type: cell-based, hamster
# Conditions: Table 6
# Protocol: HIT-T15 (ATCC CRL#1777) is an immortalized hamster insulin-producing cell line. These cells express RUP3 and therefore can be used to assess the ability of RUP3 ligands to stimulate or inhibit cAMP accumulation via its endogenously expressed receptor. In this assay, cells are grown to 80% confluence and then distributed into a 96-well Flashplate (50,000 cells/well) for detection of cAMP via a “cAMP Flashplate Assay” (NEN, Cat #SMP004). Briefly, cells are placed into anti-cAMP antibody-coated wells that contain either vehicle, the test ligand(s) at a concentration of interest, or 1 uM forskolin. The latter is a direct activator of adenylyl cyclase and serves as a positive control for stimulation of cAMP in HIT-T15 cells. All conditions are tested in triplicate. After a 1 hour incubation to allow for stimulation of cAMP, a Detection Mix containing ^125I-cAMP is added to each well and the plate is allowed to incubate for another 1 hour. The wells are then aspirated to remove unbound ^125I-cAMP. Bound ^125I-cAMP is detected using a Wallac Microbeta Counter. The amount of cAMP in each sample is determined by comparison to a standard curve, obtained by placing known concentrations of cAMP in some wells on the plate.
# A number of the compounds disclosed herein were screened using the above described assay.
row,SMILES,EC50 [nM]
1,"CC(C)(C)OC(=O)N1CCC(Oc2ncnc(Nc3ccc(S(C)(=O)=O)cc3)c2[N+](=O)[O-])CC1 [Compound A1, 4-[6-(4-Methanesulfonyl-phenylamino)-5-nitro-pyrimidin-4-yloxy]-piperidine-1-carboxylic acid tert-butyl ester]",20
2,"CC(C)(C)OC(=O)N1CCC(Oc2ncnc(Nc3ccc(S(C)(=O)=O)cc3F)c2[N+](=O)[O-])CC1 [Compound A34, 4-[6-(2-Fluoro-4-methanesulfonyl-phenylamino)-5-nitro-pyrimidin-4-yloxy]-piperidine-1-carboxylic acid tert-butyl ester]",27
3,"CC(C)(C)OC(=O)N1CCC(Oc2ncnc(Nc3ccc(S(C)(=O)=O)cc3)c2C#N)CC1 [Compound A35, 4-[5-Cyano-6-(4-methanesulfonyl-phenylamino)-pyrimidin-4-yloxy]-piperidine-1-carboxylic acid tert-butyl ester]",59
